Data taken from ChEMBL document CHEMBL1152637, “Synthesis and evaluation of non-hydrolyzable D-mannose 6-phosphate surrogates reveal 6-deoxy-6-dicarboxymethyl-D-mannose as a new strong inhibitor of phosphomannose isomerases” (Bioorg Med Chem, 2009).
Active and inactive are the calls of the source. The rule behind the calls is not given here.

What was measured:
[1] = target: T1, Mannose-6-phosphate isomerase (Escherichia coli (strain K12), UniProt P00946); experiment: Inhibition of Escherichia coli type I phosphomannose isomerase assessed as D-mannose 6-phosphate to D-fructose 6-phosphate isomerization at pH 7.1 by PGI/G6PDH coupled enzyme spectrophotometric assay
T1 sequence (P00946 whole entry): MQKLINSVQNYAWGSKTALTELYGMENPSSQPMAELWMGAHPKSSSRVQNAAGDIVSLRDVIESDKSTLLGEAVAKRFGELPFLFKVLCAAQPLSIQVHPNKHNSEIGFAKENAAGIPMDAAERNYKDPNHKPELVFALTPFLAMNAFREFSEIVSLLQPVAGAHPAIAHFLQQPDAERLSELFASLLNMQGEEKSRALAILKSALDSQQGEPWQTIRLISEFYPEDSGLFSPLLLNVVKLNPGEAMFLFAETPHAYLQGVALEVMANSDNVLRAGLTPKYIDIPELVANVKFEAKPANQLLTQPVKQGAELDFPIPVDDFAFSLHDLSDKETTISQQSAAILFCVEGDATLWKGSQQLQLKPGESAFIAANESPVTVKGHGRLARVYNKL

[2] = target: T2, Mannose-6-phosphate isomerase (Saccharomyces cerevisiae, UniProt P29952); experiment: Inhibition of Saccharomyces cerevisiae type I phosphomannose isomerase assessed as D-mannose 6-phosphate to D-fructose 6-phosphate isomerization at pH 7.1 by PGI/G6PDH coupled enzyme spectrophotometric assay
T2 sequence (P29952 whole entry): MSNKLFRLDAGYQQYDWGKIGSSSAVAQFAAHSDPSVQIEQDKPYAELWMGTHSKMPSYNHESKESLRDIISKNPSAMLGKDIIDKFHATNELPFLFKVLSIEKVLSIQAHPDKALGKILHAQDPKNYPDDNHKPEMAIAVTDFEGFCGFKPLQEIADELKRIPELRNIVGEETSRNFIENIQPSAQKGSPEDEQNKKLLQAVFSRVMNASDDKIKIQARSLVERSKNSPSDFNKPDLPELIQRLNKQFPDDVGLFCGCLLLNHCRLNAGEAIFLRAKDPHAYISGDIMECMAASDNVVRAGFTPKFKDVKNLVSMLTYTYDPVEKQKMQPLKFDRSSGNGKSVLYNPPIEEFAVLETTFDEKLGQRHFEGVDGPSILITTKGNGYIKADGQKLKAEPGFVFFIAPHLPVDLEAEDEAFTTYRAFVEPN

[3] = target: T3, Mannose-6-phosphate isomerase (Escherichia coli (strain K12)) (UniProt P00946); experiment: Competitive inhibition of Escherichia coli type I phosphomannose isomerase assessed as D-mannose 6-phosphate to D-fructose 6-phosphate isomerization at pH 7.1 by PGI/G6PDH coupled enzyme spectrophotometric assay
T3 sequence (whole entry): T1 sequence (P00946 whole entry)

[4] = target: T4, Mannose-6-phosphate isomerase (Saccharomyces cerevisiae) (UniProt P29952); experiment: Competitive inhibition of Saccharomyces cerevisiae type I phosphomannose isomerase assessed as D-mannose 6-phosphate to D-fructose 6-phosphate isomerization at pH 7.1 by PGI/G6PDH coupled enzyme spectrophotometric assay
T4 sequence (whole entry): T2 sequence (P29952 whole entry)

Compound: O=C(O)C(C[C@H]1OC(O)[C@@H](O)[C@@H](O)[C@@H]1O)C(=O)O (some centres not stated)
- IC50 [1]: 199 µM
- Ki [1]: 115 µM
- IC50 [2]: 18.1 µM
- Ki [2]: 10.5 µM
- inhibition [3]: Active
- inhibition [4]: Active

Compound: O=C(O)[C@@H](O)[C@H](O)[C@H](O)CP(=O)(O)O
- IC50 [1]: > 3000 µM

Compound: NNC(=O)[C@@H](O)[C@H](O)[C@H](O)CCP(=O)(O)O
- IC50 [1]: > 3000 µM

Compound: O=C(O)CC[C@H]1OC(O)[C@@H](O)[C@@H](O)[C@@H]1O (some centres not stated)
- IC50 [1]: 4600 µM
- IC50 [2]: 900 µM

Compound: O=C(NO)[C@@H](O)[C@H](O)[C@H](O)CCP(=O)(O)O.ONO.ONO.ONO
- IC50 [1]: 370 µM
- IC50 [2]: 2200 µM
